In patent publication US12234223B2, “Phthalazinone compound, and preparation method therefor and medical use thereof” (SHANGHAI JEMINCARE PHARMACEUTICALS CO., LTD, priority 2020, dated 2025):

Target: T1, Androgen receptor (Homo sapiens, UniProt P10275)
T1 construct: Dmax: a maximum degradation degree of AR in VCaP cells; endogenous in cells; host or cells: VCaP cells
T1 sequence (P10275 1-920): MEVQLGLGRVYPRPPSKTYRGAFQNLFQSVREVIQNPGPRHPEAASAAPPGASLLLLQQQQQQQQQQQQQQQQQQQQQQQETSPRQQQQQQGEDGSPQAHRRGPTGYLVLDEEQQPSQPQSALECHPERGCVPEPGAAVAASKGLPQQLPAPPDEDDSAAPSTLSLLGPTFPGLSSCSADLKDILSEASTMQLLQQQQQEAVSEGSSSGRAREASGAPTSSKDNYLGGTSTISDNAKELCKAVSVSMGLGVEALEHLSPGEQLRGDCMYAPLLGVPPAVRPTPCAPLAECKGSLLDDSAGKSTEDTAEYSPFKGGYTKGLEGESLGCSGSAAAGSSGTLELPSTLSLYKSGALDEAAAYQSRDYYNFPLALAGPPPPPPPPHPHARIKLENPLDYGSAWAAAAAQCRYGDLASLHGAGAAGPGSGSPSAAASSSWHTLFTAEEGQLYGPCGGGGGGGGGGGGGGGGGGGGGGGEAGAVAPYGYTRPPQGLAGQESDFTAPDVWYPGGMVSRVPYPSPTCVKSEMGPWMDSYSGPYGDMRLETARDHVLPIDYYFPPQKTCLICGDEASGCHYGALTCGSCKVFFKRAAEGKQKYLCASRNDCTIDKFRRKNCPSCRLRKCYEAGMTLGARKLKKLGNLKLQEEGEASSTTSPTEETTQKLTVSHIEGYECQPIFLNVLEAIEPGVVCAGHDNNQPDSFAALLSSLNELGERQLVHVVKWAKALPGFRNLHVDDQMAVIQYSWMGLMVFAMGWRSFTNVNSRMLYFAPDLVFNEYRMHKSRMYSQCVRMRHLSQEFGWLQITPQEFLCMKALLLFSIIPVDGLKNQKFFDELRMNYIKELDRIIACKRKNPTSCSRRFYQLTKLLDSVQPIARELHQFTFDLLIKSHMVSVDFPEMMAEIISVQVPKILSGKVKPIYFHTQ
Test: Androgen receptor In-Cell-Western assay (AR degradation in VCaP cells)
Assay type: cell-based
Settings: 24 hours treatment; for DC50: concentration for half the maximum degradation degree of AR in VCaP cells; for Dmax: maximum degradation degree of AR in VCaP cells
Protocol: This assay evaluated compound performance in VCap cells. An intracellular androgen receptor was assayed by In-Cell-Western according to the assay procedure described below.
In a 96-well cell culture plate (Corning 3599) pretreated by poly-D-Lysin, Vcap cells were seeded to a Vcap cell assay medium [phenol red containing DMEM (Gibco Cat. No.: 11995065); fetal bovine serum FBS (Gibco Cat. No.: 10099141C)] at a volume of 100 μL/well and a cell density of 50,000 cells/well. Cells were cultured for at least two days. • 1. First, cells were treated with a compound. The compound was subjected to a gradient dilution by using DMSO and a cell culture medium, so that DMSO contained in the cell culture plate was diluted to 0.5%: a polypropylene plate was used according to the following protocol: • (1) (i) A 200× stock solution plate was prepared in DMSO; (ii) a 10 mM stock solution was diluted at 1:4 (10 μL stock solution+40 μL DMSO=2000 uM) with DMSO to enter row 2; (iii) a 1:4 (10 μL protac+40 μL DMSO) gradient dilution was performed from row 2 to row 9, row 1 was reserved for a 2000 uM reference compound and row 10 was reserved for DMSO. (iv) There were 8 concentrations (the final concentrations on the 200× plate was 2000 uM, 400 uM, 80 uM, etc.) in total. (2) (i) A 3× stock solution was prepared in the medium; (ii) 3 μL of the 200× stock solution was transferred to 197 μL of the medium (by a 12-channel pipette, from row 1 to row 10), i.e. a 3× stock solution plate. (iii) Uniform mixing was performed for the stock solution plate. (3) (i) The medium of Vcap cells was replaced with a fresh medium, with the medium volume of 100 μL. (ii) The uniformly-mixed 3× stock solution was transferred to the cell culture plate (by the 12-channel pipette, 50 μL of the stock solution was transferred from row 1 to row 10). (iii) The cells were cultured for 24 hours. • 2. The expression level of the intracellular androgen receptor after compound treatment was detected, and assay was performed according to the following method. • (1) (i) An equal volume of 8% paraformaldehyde was added to the cell culture plate for cell fixation. A fixative solution in the cell plate was discarded, and the cell plate was washed three times with PBS. (ii) A Triton solution was prepared (the stock solution was diluted at 1:1000). The solution in the cell plate was discarded, and a volume of 200 μL of a Triton diluent was added to each well. (iii) A 2× blocking solution was prepared (a 10× blocking stock solution was diluted at 1:4). The solution in the cell plate was discarded, and a volume of 100 μL of the 2× blocking solution was added to each well. (iv) A primary antibody solution (Androgen receptor Rabbit mAb, Cell Signaling Technology Cat. No.: 5153; 1:1000 dilution) was prepared. The solution in the cell plate was discarded, a volume of 100 μL of a primary antibody diluent was added to each well, and incubation was performed at 4 degrees overnight. (v) The primary antibody solution was discarded, and the cell plate was washed with 1× Wash buffer (Wash buffer in the present application means a washing buffer solution). (vi) A secondary antibody solution (Goat anti Rabbit IgG (H+L) Secondary Antibody, HRP, Thermo Cat. No.: 31460; 1:5000 dilution) was prepared, and a volume of 100 μL of a secondary antibody diluent was added to each well for incubation. (vii) The secondary antibody solution in the cell plate was discarded, and the cell plate was washed with 1× Wash buffer. (viii) A TMB chromogenic solution (BD Cat. No.: 550534) was prepared, and a volume of 100 μL of the chromogenic solution was added to each well. (ix) A volume of 50 μL of a stop solution (BD Cat. No.: 550534) was added to each well. (x) Absorption values at OD 450 nm and 570 nm were read by EnVision. (2) (i) Normalized analysis was performed for the number of cells in each well. The solution in the cell plate was discarded, and the cell plate was washed three times with wash buffer. […]

CC1(C)[C@H](NC(=O)c2ccc(N3CCC(CN4CCN(c5ccc6c(=O)n([C@H]7CCC(=O)NC7=O)ncc6c5)CC4)CC3)cc2)C(C)(C)[C@H]1Oc1ccc(C#N)c(Cl)c1 [Compound 28A]
DC50: 2.7 nM | Dmax: 126%

CC1(C)[C@H](NC(=O)c2ccc(N3CCC(CN4CCN(c5ccc6c(=O)n(C7CCC(=O)NC7=O)nc(F)c6c5)CC4)CC3)cc2)C(C)(C)[C@H]1Oc1ccc(C#N)c(Cl)c1 (stereo partly drawn) [Compound 29]
DC50: 8.9 nM | Dmax: 169%

CC1(C)[C@H](NC(=O)c2ccc(N3CCC(CN4CCN(c5ccc6c(=O)n(C7CCC(=O)NC7=O)ncc6c5)CC4)CC3)cc2)C(C)(C)[C@H]1Oc1ccc(C#N)c(Cl)c1 (stereo partly drawn) [Compound 1]
DC50: 10 nM | Dmax: 97%
